Results on four compounds are retold here after patent publication US20250115942A1, “SCREENING METHOD FOR ANTI-PSEUDOMONAL AGENTS AND COMPOSITIONS AND METHODS FOR TREATING PSEUDOMONAS INFECTIONS” (Board of Regents for Oklahoma Agricultural and Mechanical …, priority 2021, published 2025).

Assay [1] relates to Pseudomonas aeruginosa PA14. Put plainly: Growth curve analysis (OD600) in LB-Lennox. The class given is cell-based. On the procedure:
Strains of interest were grown on LB plates overnight, then inoculated into LB liquid broth until late stationary phase was reached (about 18 hours). Strains were then diluted 1,000-fold into fresh medium and grown to early exponential phase (about 4 hours). The optical density at 600 nm (OD600) was measured, and all cultures were normalized to an OD600 equal to 0.1. […] The plate was incubated in a BioTek Synergy H1 plate reader (BioTek, USA) at 37° C. for 20 h with orbital shaking. OD600 measurements were obtained every 2 minutes. […]

The subject of assay [2] is R/F pyocin gene transcription (P07990-lux reporter). Put plainly: Kinetic luciferase assay, P07990-lux reporter for R/F pyocin expression. Format: cell-based, Pseudomonas aeruginosa. The procedure:
Strains of interest were cultured as described in the growth curve analysis section. Luminescence was measured in black or white clear-bottom 96-well microtiter plates at 3-min intervals at a sensitivity (gain) setting of 135 or 200 together with the OD600 for 20 hours on a BioTek Synergy H1 plate reader (BioTek, USA). Final luciferase activity values were calculated by normalizing luciferase luminescence to culture density.
Strains of interest were grown on LB plates overnight, and single colonies were inoculated into LB liquid broth with appropriate antibiotics and grown overnight with shaking at 37° C. Strains were then diluted 1,000-fold into fresh LB medium and grown to early exponential phase (2-4 hours). […] The plate was incubated in a BioTek Synergy H1 plate reader (BioTek, USA) at 37° C. for 20 h with double-orbital shaking. OD600 and luminescence (gain=135, integration time, 1 sec) measurements were obtained every 10 minutes. At least 3 biological replicates were assayed for each combination of strain and condition. Results were analyzed in MS Excel and plotted using GraphPad Prism.

For assay [3], the system named is R/F pyocin expression (P07990-gfp reporter). Format: cell-based, Pseudomonas aeruginosa. Conditions: wild-type PA14; 50 μM peptide, 135 min.
Method: Strains of interest were grown in 3 mL of LB liquid broth overnight to obtain a saturated culture. They were then diluted 1,000-fold in fresh LB and grown to early exponential phase (about 4 hours). Cultures were concentrated by centrifuging 1 mL of exponential culture into a microcentrifuge tube at 5000 g for 1 min and resuspending in 100 μL. Cells were immobilized by spotting 0.5 μL of the concentrated mixture onto the pad and covering with cover glass. Imaging was performed on a Nikon Eclipse Ti inverted fluorescence microscope equipped with a Photometrics Prime 95B sCMOS digital camera, a Lumencor SOLA SE II 365 LED Light Engine, and an OKO temperature-controlled enclosure. Snapshot images of the slides were taken at 100× magnification in both phase and GFP channels. Automated timelapse imaging was performed at 37° C. For quantification of GFP-positive cells, images were analyzed using the MicrobeJ plugin for ImageJ, segmenting on phase-contrast and taking the mean GFP values of the corresponding fluorescence images. […]
Strains of interest were grown in 3 mL of LB liquid broth with appropriate antibiotics overnight. […] Imaging was immediately performed using a Nikon Eclipse Ti inverted fluorescence microscope with a Photometrics Prime 95B sCMOS digital camera, a Lumencor SOLA SE II 365 LED Light Engine, and an OKO temperature-controlled enclosure. […]
[4] abbreviates: wild-type cells, 50 μM peptide co-treatment with 0.03 μg/ml ciprofloxacin.
[5] abbreviates: wild-type cells, peptide 25-100 μM.
Setting [6] is: wild-type cells, peptide concentrations in the 0.1-10 μM range (inhibitor: below 10 μM).
[7] abbreviates: wild-type cells, 0.1-50 μM peptide with 0.03 μg/ml ciprofloxacin.

As for `O=C(O)c1cn(C2CC2)c2cc(N3CCNCC3)c(F)cc2c1=O` [ciprofloxacin], the culture growth entry in assay [1] (WT PA14 cells, 0.03 μg/ml ciprofloxacin) was “slower growth en route to a slightly lower final OD”; in assay [1] (xerCY272F, 0.03 μg/ml ciprofloxacin), “initially outgrew both untreated control cultures”. Besides, the “OD600 reached in growth curve” value in assay [1] (Δ69700 cells, 0.03 μg/ml ciprofloxacin) turned out to be 0.8. The “culture growth (ciprofloxacin sensitivity)” value in assay [1] (ΔxerC strain, 0.03 μg/ml ciprofloxacin) was “sensitivity to ciprofloxacin similar to Δ69700”.
In the case of `CO[C@@]12[C@H](COC(N)=O)C3=C(C(=O)C(C)=C(N)C3=O)N1C[C@@H]1N[C@@H]12` [MMC, mitomycin C], the culture growth entry in assay [1] (wild-type cells, 0.1 μg/ml MMC) is listed as “inhibited cell growth to a slightly greater degree than 0.03 μg/ml ciprofloxacin”; in assay [1] (xerCY272F, 0.1 μg/ml MMC), “initially outgrew both untreated control cultures”. Moreover, the “peak pyocin expression, OD-normalized” value in assay [2] (wild-type cells, 0.1 μg/ml MMC) is listed as “peaked at approximately tenfold that induced by ciprofloxacin”. Further, the pyocin expression result was “abolished ciprofloxacin- and MMC-mediated stimulation of pyocin expression” in assay [2] (xerCY272F ΔrecA, 0.1 μg/ml MMC); “less expression in xerCY272F cultures than in the wild type” in assay [2] (xerCY272F, 0.1 μg/ml MMC); “deletion of prtN abolished the ability of MMC to stimulate pyocin expression” in assay [2] (ΔprtN (wild-type background), 0.1 μg/ml MMC); “deletion of recA fully abolished this very strong MMC-stimulated pyocin induction” in assay [2] (ΔrecA, 0.1 μg/ml MMC); “fully abrogated pyocin expression” in assay [2] (ΔxerC ΔprtN, 0.1 μg/ml MMC); “independent of RecA” in assay [2] (ΔxerC ΔrecA, 0.1 μg/ml MMC). The “peak pyocin expression relative to untreated cells” value in assay [2] (ΔxerC cells, 0.1 μg/ml MMC) is listed as “approximately twofold stronger, peak of expression than in untreated cells”.
As to WRWYCR, the culture growth entry in assay [1] (wild-type cells, 10 μM peptide) is “affected culture growth to a similar degree as 0.03 μg/ml ciprofloxacin”; in assay [1] (setting [4]), “initial inhibition of growth”; in assay [1] (setting [5]), “markedly impaired P. aeruginosa growth”; in assay [1] (setting [6]), “correspondingly smaller effects”; in assay [1] (ΔxerC cells, peptide 25-100 μM), “inhibited”. Also, the pyocin expression result in assay [2] (wild-type cells, 10 μM peptide co-treatment with 0.03 μg/ml ciprofloxacin) was “earlier and higher peak of pyocin expression relative to ciprofloxacin alone”; in assay [2] (setting [4]) it was “later peak of pyocin expression”; in assay [2] (wild-type cells, 0.1-10 μM peptide) it was “no increase in pyocin expression over untreated cells”; in assay [2] (setting [5]), “Neither the WRWYCR inhibitor nor the WKHYNY control elicited pyocin expression beyond the level of untreated cells”; in assay [2] (ΔxerC cells, peptide 25-100 μM) it was “no differences in pyocin expression were observed”. Further, in assay [3], the “GFP fluorescence of pyocin-GFP reporter cells” value was “did not elicit GFP fluorescence”.
As for WKHYNY, the culture growth entry is “impacted neither culture growth nor pyocin expression” in assay [1] (setting [7]); “no inhibition of growth” in assay [1] (setting [5]); “correspondingly smaller effects, as did the control peptide” in assay [1] (setting [6]); “inhibited by WRWYCR but not WKHYNY” in assay [1] (ΔxerC cells, peptide 25-100 μM). Besides, the pyocin expression result is “impacted neither culture growth nor pyocin expression” in assay [2] (setting [7]); “Neither the WRWYCR inhibitor nor the WKHYNY control elicited pyocin expression beyond the level of untreated cells” in assay [2] (setting [5]); “no differences in pyocin expression were observed” in assay [2] (ΔxerC cells, peptide 25-100 μM).
